Data on two molecules can be found in US20170181999A1, “USE OF COMPOUNDS PRODUCED FROM ARRABIDAEA BRACHYPODA EXTRACTS AS ANTI-ULCEROGENIC AGENTS” (UNIVERSIDADE ESTADUAL PAULISTA "JULIO DE MESQUITA FILHO" - …, priority 2013, published 2017).

Molecules are shown by their SMILES. Marks after values point to notes of the source that are not given here.

The test system of data set [1] is glutathione reductase (GR). Nature of the data set: Glutathione reductase (GR) activity on the gastric mucous, ulcer induced by ethanol. Format: in vivo. The conditions noted are these: oral administration, gastric mucous of rats. The method, then:
For measuring the GR activity, the enzymatic reaction was prepared with 100 μL of the sample (after centrifugation and dilution of the supernatant in phosphate buffer pH=7.4 in a 1:10 ratio) and 150 μL of the mixture formed by EDTA (0.20 mM), oxidized glutathione (1 mM) and NADPH (0.1 mM). The absorbance was read at 365 nm, between 0 and 10 minutes, according to the technique developed by Carlberg & Mannervik, 1985.
Rats Unib-WH were submitted to fasting for 24 hours with water ad libitum. On the day of the trial, they were divided into […] groups: saline as negative control, lansoprazole as positive control and four groups with the A. brachypoda roots extracts at different concentrations (dosages of 10, 30, 100 and 300 mg·Kg-1) dissolved in saline at 10 mL·Kg-1 concentrations.
The animals received the predicted treatment for each group and one hour later, 1 mL of absolute ethanol was orally administered.
After one hour of ulcer induction, the rats were sacrificed by cervical dislocation and their stomachs were withdrawn for quantification of injuries.
The injury areas were calculated, the stomachs were homogenized, the cytosolic extracts were prepared and the membranes for conducting the biochemical assays.

The test system of data set [2] is glutathione peroxidase (GPx). Nature of the data set: Glutathione peroxidase (GPx) activity on the gastric mucous, ulcer induced by ethanol. It counts as in vivo. Particulars: oral administration, gastric mucous of rats.
Description: Rats Unib-WH were submitted to fasting for 24 hours with water ad libitum. On the day of the trial, they were divided into 7 groups: saline as negative control, lansoprazole as positive control and four groups with the A. brachypoda roots extracts at different concentrations (dosages of 10, 30, 100 and 300 mg·Kg-1) dissolved in saline at 10 mL·Kg-1 concentrations.
The subject of the next data set is GSH. Nature of the data set: Glutathione (GSH) levels on the gastric mucous, ulcer induced by ethanol. It counts as in vivo. Particulars: oral administration, gastric mucous of rats. The protocol: To proceed with the measurement of the total glutathione content, the method disclosed by Anderson in 1985 was used, which bases on the total oxidation of the reduced glutathione (GSH) present in a sample to its oxidized form (GSSG), through the incubation of the sample with dithiobis nitrobenzoic acid (DTNB). The reduced DTNB acquires a yellow coloration, which can be spectrophotometrically determined. The GSSG generated is reduced by the action of the enzyme glutathione reductase in the presence of NADPH. The GSH formed oxidizes again, generating a continuous cycle, in which the reduction speed of the DTNB (and its resulting increase in the absorbance at 412 nm) is proportional to the total amount of glutathione (GSH+GSSG). To proceed with the measurement of the total glutathione content, the cytosolic extracts obtained from the stomachs of the animals of the ulcer induced by ethanol trials were used. […] The plate was placed on the spectrophotometer reader, where it was maintained for 5 minutes in a temperature of 30° C. After this period, 15 μL of glutathione reductase was added and the increase on the absorbance was registered at 412 nm. […]

The test system of data set [3] is myeloperoxidase (MPO). In words: MPO activity of the gastric mucous, ulcer induced by acetic acid. It counts as in vivo, rats. Particulars: oral, extract 300 mg/kg, lansoprazole 30 mg/kg.
Description: The myeloperoxidase activity was determined through the method disclosed by Krawisz et al. in 1984. The samples were homogenized in hexadecyl trimethyl ammonium bromide (HTAB) buffer at 0.5% (w/v) in saline phosphate buffer (50 mM, pH 6.0) with final dilution of 1:20 (w/v) until the obtainment of an uniform aspect.
The homogenate was submitted to the ultrasonic bath for 10 seconds, followed by a triple process for freezing and defrosting, which facilitates the rupture of the cell structures and, as a consequence, the release of the enzyme.
The sample was centrifuged at 7000 G, during 10 minutes and the MPO activity was determined following the kinetics of the reaction faced to hydrogen peroxide.
In an ELISA plate, 50 μL of the supernatant and 150 μL of the color reactive and hydrogen peroxide (0.066%) were placed in phosphate buffer (50 mM, pH 6.0).
(§4) The absorbance was determined at 450 nm and the enzyme activity was calculated by the interpolation of the standard curve, performed with MPO originated from human neutrophils.
(§5) One unity of MPO is defined as the necessary amount to degrade 1 mmol/minute of hydrogen peroxide at 25° C. The results were expressed as U/g of protein.
Data set [4] concerns myeloperoxidase (MPO). Nature of the data set: MPO activity, ulcer induced by ethanol. The conditions noted are these: rats. Format: in vivo.
Description: The myeloperoxidase activity was determined through the method disclosed by Krawisz et al. in 1984. The samples were homogenized in hexadecyl trimethyl ammonium bromide (HTAB) buffer at 0.5% (w/v) in saline phosphate buffer (50 mM, pH 6.0) with final dilution of 1:20 (w/v) until the obtainment of an uniform aspect. […]
The sample was centrifuged at 7000 G, during 10 minutes and the MPO activity was determined following the kinetics of the reaction faced to hydrogen peroxide. […]
as §4, §5
In another data set the test system is gastric acid secretion. Nature of the data set: Pylorus ligature and evaluation of the gastric juice parameters. Particulars: intra-duodenal administration; pylorus ligature, 4 hours. Format: in vivo, rats. The protocol: The rats were in fasting for 48 hours with water ad libitum. On the day of the trial, the animals were divided into four groups: saline, lansoprazole, cimetidine and treated with A. brachypoda extract.
The rats were anesthetized and underwent a longitudinal incision just below the xiphoid apophysis for the pylorus ligature.
The drug administration was carried out immediately after the ligature, intraduodenally. The incisions were sutured, and after four hours of surgery, the rats were sacrificed. The stomachs were carefully withdrawn and acid secretion was collected. After centrifugation, the volume and pH of the secretion of each animal was measured.

The test system of data set [5] is ulcer induced by acetic acid. In words: Healing of the ulcer induced by acetic acid, injury area. Format: in vivo, rats. The protocol: The rats were anaesthetized with xilazine chloridrate and ketamine for performing a longitudinal incision right under the xiphoid apophysis.
The previous wall of the stomach was exposed and an area of the serous tissue was delimited with a plastic ring upon which was added 50 μL of acetic acid absolute with the aid of an automatic micropipette, the contact between the acid and the serous tissue being maintained during 60 seconds.
Following, the area was cleaned with saline solution and the animals had their abdominal cavities closed, being maintained in rest until complete recovery of the anesthesia and, then, they were placed at the vivarium.
(§1) After 48 hours of the surgical procedure, the oral administration of the treatments was initiated (once daily for 7 and 14 days) with EAB (300 mg/kg), lansoprazole (30 mg/kg—positive control) and vehicle (saline solution 0.9%—negative control).
(§2) The animals were weighted and observed from the induction of the injury to the end of treatments. At the end of this period, the animals were sacrificed; their stomachs were removed and opened toward the great curvature to the measurement of the ulcerative injury area.

Data set [6] in a line: Sub-chronic toxicity evaluation (organ and body weight), acetic acid ulcer model. The conditions noted are these: oral. Format: in vivo, rats. The method, then: as §1, §2
(§3) Tissue sections were also collected for preparing histological blades. The animals also had heart, lungs, liver, kidneys and testicles collected and weighted in order to verify possible signs of toxicity.

Data set [7] concerns ulcer induced by acetic acid. In words: Histological analysis of stomachs, ulcer induced by acetic acid. Particulars: treated for 14 days, compared to the saline group. It counts as in vivo, rats. The method, then:
as §3
The histological cuts and blades were prepared by fixing the material in Alfac (formalin, alcohol 80% and acetic acid) for 24 hours. The pieces were, then, dehydrated and included in an appropriate medium solid.
Subsequently, the middle blocks were cut ([…] thick) on a microtome, serially. The samples were submitted to hematoxylin-eosin (HE) coloration for general observation of the structure and cellularity in light microscopy.

For `Cc1c(OCC(F)(F)F)ccnc1C[S+]([O-])c1nc2ccccc2[nH]1` (centres unmarked) [Lansoprazole, lansoprazole], the “GR (nmol/min/mg of protein)” value in [1] is on record as 10.53 ± 0.42 nmol/min/mg of protein. Also, the “GPx (nmol/min/mg of protein)” value in [2] is listed as 33.54 ± 2.12 nmol/min/mg of protein. Besides, the “GSH (nmol/mg of protein)” value in the data set on GSH is 13.45 ± 2.25 nmol/mg of protein. The “MPO (U/mg of protein)” value in the data set on myeloperoxidase (MPO) [3] (7 consecutive days) is on record as 110.50 ± 33.43 U/mg of protein; in the data set with myeloperoxidase (MPO) [3] (14 consecutive days) it was 98.05 ± 15.99 U/mg of protein; in the data set on myeloperoxidase (MPO) [4], 0.6 0.04* U/mg of protein. Further, the “pH of the gastric acid secretion” value with gastric acid secretion was 5.41 0.04***. Besides, in data set [5] (7 consecutive days, oral, extract 300 mg/kg, lansoprazole 30 mg/kg), the “Ulcerogenic injury area (FIG. 6)” value was “reduction of the injury area”. In addition, the “Evolution of the healing process, recovery of the gastric mucous (FIG. 8)” value in data set [5] (during 14 days of oral treatment) is given as “acceleration”. For the same molecule, in data set [6] (sub-chronic treatment, 14 days), the “Evolution of the corporal weight (FIG. 5)” value is listed as “no significative statistical difference”. Moreover, the “Relation between the weight of the organs and the animals: lungs (FIG. 3)” value in [6] (treated for 7 days) was “reduction of this relation in the lungs”. Further, in data set [7], the “Photomicrographs of stomachs (FIG. 11)” value is “speeded up the healing of the gastric mucous”.

On to `CN/C(=N/CCSCc1nc[nH]c1C)NC#N` [Cimetidine, cimetidine], for which, in the data set on gastric acid secretion, the “Volume of gastric acid secretion (mL)” value was 0.31 0.03** mL and the “pH of the gastric acid secretion” value was 5.39 0.11***.
